Measurements taken from patent US6380263B1, “6-substituted pyrimidine 3-oxides for promoting pigmentation of the skin/hair” (Societe L'Oreal, priority 1996, dated 2002).

Key:
[1] = tested on: purified fungal tyrosinase (EC 1.14.18.1); assay: Modulation of tyrosinase activity (dopachrome formation from L-tyrosine, spectrophotometry at 475 nm); type: biochemical; details: 100 μl of 1 mM derivative solution (PBS/1% ethanol) in 1000 μl mixture; substrate L-tyrosine; 37° C.; at least 30 minutes
Experimental: In order to determine the activity of the pyrimidine derivatives substituted in position 6, the simple and rapid technique is employed that entails measurement by incubating an optionally purified tyrosinase and one of its substrates in a suitable medium in the presence of a test compound, and then comparing the measurements taken with the results of identical measurements taken during the incubation of optionally purified tyrosinase with one of its substrates in the absence of the test compound.
A purified tyrosinase was incubated in the presence of one of its substrates in a suitable medium, in the presence or absence of a pyrimidine 3-oxide derivative, substituted in position 6. The activity of the enzyme was evaluated by measuring the amount of a product of conversion of the substrate formed during the reaction. The result obtained in the presence of a derivative was compared with the result obtained in the absence of a derivative.
The substrate used was L-tyrosine (marketed by Sigma), a stock solution of which was prepared in phosphate-buffered saline (PBS) at a concentration of 0.5 mM.
The enzyme used was a purified fungal tyrosinase (EC 1.14.18.1) marketed by Sigma. A stock solution of this enzyme was prepared in PBS at a concentration of 5 mg/ml, which represents a concentration of about 19,500 international units of tyrosinase per milliliter.
The product of conversion of the tyrosine by tyrosinase, dopachrome, was measured by spectrophotometry at a wavelength of 475 nm using a Perkin Elmer type apparatus.
The derivative to be tested was prepared in solution in PBS containing 1% ethanol at a concentration of 1 mM.
The following reagents were mixed together in a spectrophotometer cell:
500 μl of tyrosine solution,
390 μl of phosphate buffer,
10 μl of fungal tyrosinase solution,
100 μl of solution of test derivative or of PBS/1% ethanol (control).
The mixture was then incubated at a temperature of 37° C. and the dopachrome formed was measured continuously for at least 30 minutes.
The results obtained are expressed as a % of activation of the tyrosinase activity relative to the value obtained with the control (in the absence of derivative).

[2] = tested on: hair pigmentation; details: bald men treated with this compound; cited from earlier work

Structure (SMILES)	Activation (% of activation of the tyrosinase activity relative to the control) [1] [%]	effect on hair pigmentation [2]
Nc1nc(N2CCCCC2)cc(NCCO)[n+]1[O-] [2-amino-4-(2-hydroxyethylamino)-6-piperidinopyrimidine 3-oxide]	43	–
CCCNc1cc(N(C)C)nc(N)[n+]1[O-] [2-amino-4-propylamino-6-dimethylaminopyrimidine 3-oxide]	50	–
Nc1nc(N2CCCCC2)cc(NCc2ccccc2)[n+]1[O-] [2-amino-4-benzylamino-6-piperidinopyrimidine 3-oxide]	45	–
CNc1cc(N2CCCCC2)nc(N)[n+]1[O-] [2-amino-4-methylamino-6-piperidinopyrimidine 3-oxide]	50	–
CCCNc1cc(N2CCCCC2)nc(N)[n+]1[O-] [2-amino-4-propylamino-6-piperidinopyrimidine 3-oxide]	46	–
Nc1cc(N2CCCCC2)nc(N)[n+]1[O-] [Minoxidil, 2,4-diamino-6-piperidinopyrimidine 3-oxide, reference compound]	41	stimulatory effect on hair pigmentation
CCCNc1cc(N2CCCCC2)nc(NCCC)[n+]1[O-] [2,4-bis-propylamino-6-piperidinopyrimidine 3-oxide]	57	–
CCCCNc1cc(N(C)C)nc(N)[n+]1[O-] [2-amino-4-butylamino-6-dimethylaminopyrimidine 3-oxide]	51	–
CCCCCCNc1cc(N2CCCCC2)nc(N)[n+]1[O-] [2-amino-4-hexylamino-6-piperidinopyrimidine 3-oxide]	47	–

Second part, led by results:

Activation (% of activation of the tyrosinase activity relative to the control) [1] [%]	Structure (SMILES)	effect on hair pigmentation [2]
60	CCNc1cc(N(C)C)nc(NCC)[n+]1[O-] [2,4-bis-ethylamino-6-dimethylaminopyrimidine 3-oxide]	–
55	CCCNc1cc(N(C)C)nc(NCCC)[n+]1[O-] [2,4-bis-propylamino-6-dimethylaminopyrimidine 3-oxide]	–
61	CNc1cc(N(C)C)nc(NC)[n+]1[O-] [2,4-bis-methylamino-6-dimethylaminopyrimidine 3-oxide]	–
46	CC(C)Nc1cc(N(C)C)nc(N)[n+]1[O-] [2-amino-4-isopropylamino-6-dimethylaminopyrimidine 3-oxide]	–
